This note sets out measurements from US12428405B2, “Chalcone-based chemotherapeutic compound for triple negative breast cancer” (QATAR UNIVERSITY, priority 2019, dated 2025).

The test system of experiment [1] is MDA-MB-231. Put plainly: Soft agar colony formation assay. The format is cell-based. The note with it: MDA-MB-231; soft agar.
Another experiment has as its system MDA-MB-468. Put plainly: Soft agar colony formation assay. The note with it: MDA-MB-468; soft agar. Format: cell-based.
The next experiment deals with MCF-7. Nature of the experiment: Soft agar colony formation assay. The format is cell-based. The note with it: MCF-7; soft agar.
Experiment [2] concerns MDA-MB-231. Nature of the experiment: Migration (wound healing) assay. The format is cell-based. The following applies: for activity at 5 µM: read-out: % migration; for IC50: 24 hours of treatment, 5 concentrations, two independent experiments, read-out: Migratory IC50 MDA-MB-231. How it is done:
MDA-MB-231 cells were seeded in 12-wells plates at a concentration of 500,000 cells/well and were incubated in complete RPMI culture medium until covering the well and reaching around 90-100% confluency. Following, cells were serum starved for 4 hours and a 200 μl pipette tip was used to create the scratch followed by cell washing with PBS twice. […] Microscopic pictures were then taken, and cell migration was quantified based on the wound diameter at 24 hours minus the initial diameter at time zero, as represented by the following equation: % Migration=[…]

Experiment [3] deals with Epithelial Mesenchymal Transition (EMT) markers in MDA-MB-231 cells. Nature of the experiment: Western blot of EMT markers. The format is cell-based. The note with it: cell line not named in the sentence (FIG. 3.24, FIG. 3.25). As for the experimental part: Proteins were quantified with the Pierce BCA Protein Assay Kit (Thermo Scientific, USA) following cell lysis. SDS-PAGE was prepared at a concentration of 10% for all studied proteins. All samples were loaded at 40 μg per 1.5 mm 15 wells comb. Running of stained samples was performed using two steps gel electrophoresis (60 Volts for 20 minutes followed by 120 Volts for 1 hour). Afterwards, gels were transferred into PVDF membrane at 100 Voltage for 1.5-2.0 hours using wet transfer. Following transfer, PVDF membranes were blocked with 5% skimmed milk and washed three times. Primary antibodies (Table 2.2) were prepared, then PVDF membrane were incubated with them overnight with gentle shaking at 4° C. Afterwards, membranes were washed three times and incubated with their respective secondary antibodies for 1-2 hours with gentle shaking at room temperature. Pierce™ ECL Western Blotting Substrate was used to detect proteins by chemiluminescence. Blots were imaged using the ibrightCL1000 imaging system.
Background: Immunoblotting shows a protein as a band on a membrane.

The subject of experiment [4] is MDA-MB-231. Nature of the experiment: Cell cycle analysis (flow cytometry). Format: cell-based. The note with it: 10 μM, 48 hours post treatment; N=1. As for the experimental part: The MDA-MB-231, MDA-MB-468 and MCF-7 cell lines were seeded on 6-well plates at a concentration of 200,000 cells per well and were maintained in culture supplemented with 10% fetal bovine serum for 8-10 hours. The same day, media was removed and cells were incubated overnight with serum free media. Second day, cells were treated with the compounds. Adherent and floating cell populations were harvested at 48 hours after treatment with different concentrations of the compounds and counted.
Afterward, cells were washed with cold PBS once, centrifuged at 4° C. and fixed with 1.5 ml cold 70% ethanol added drop wise while slowly vortexing. Samples were then stored at […] Following fixation, cells were pelleted and washed with ice-cold PBS. Equal aliquots were collected and resuspended in 300 μl of Tali® Cell Cycle Kit and incubated at 37 C. with slow shaking speed for 30 minutes in the dark. Accuri C6 flow cytometer (BD Biosciences, USA) was used to analyze the cells. The FlowJo V10 software was used to process and evaluate the results.
A general note: In flow cytometry, cells or beads pass a laser one at a time.

Experiment [5] relates to Chorioallantoic membrane (CAM) of the chicken embryos. Nature of the experiment: Chorioallantoic membrane (CAM) angiogenesis assay. Format: in vivo. The following applies: treated at embryonic day 4, read at day 8; 2 μl of 5 mM stock under coverslip. As for the experimental part: Fertilized white Leghorn chicken embryos (Arab Qatari for Poultry Production, Qatar) were purchased and incubated at 60% humidity at 37° C. in MultiQuip incubator. Ethics approval was obtained from Qatar University-Institutional Bio-safety committee. The embryos were treated in ovo at embryonic day 4 with three of the synthesized chalcones (5, 13 and 14) compared to DMSO treated controls. Briefly, a small cut was made at the top of the shells of the eggs and each treatment was added under a round coverslip at 2 μl of 5 mM stock solutions. Microscopic pictures were taken at embryonic day 8. Embryos treated with compounds 13 and 14 were sacrificed at embryonic day 9 for clinical observations. Quantification of blood vessels was performed manually and the different treatment groups were compared.

[6] abbreviates: Homo sapiens, MDA-MB-231, 5 μM, 24 hours post treatment, control = 100, Mean ± SEM (N = 2 × 2).

Like-named read-outs stand apart in the source and are kept apart here.

As to `COc1cc2c(c(OC)c1OC)-c1ccc(OC)c(=O)cc1[C@@H](NC(C)=O)CC2` [Colchicine, reference compound], the “colony formation (in words)” value with MDA-MB-231 [1], with MDA-MB-468 and in the experiment with MCF-7 was “significantly inhibited the ability of cells to form colonies” in each case. Further, in the experiment with MDA-MB-231 [2] (Homo sapiens, MDA-MB-231, 24 h), the activity at 5 µM came out at 47.45 ± 0.25%. For the same compound, the “expression of β-catenin and its phosphorylated form” value in experiment [3] is listed as “upregulated phospho-3-catenin”.

Turning to `O=C(/C=C/c1ccc(N2CCCC2)cc1)c1cccc(Cl)c1` [Compound 1, (E)-1-(3-chlorophenyl)-3-(4-(pyrrolidin-1-yl)phenyl) prop-2-en-1-one], the activity at 5 µM in the experiment with MDA-MB-231 [2] (setting [6]) came out at 74.7 ± 5.8%.

Regarding `CS(=O)(=O)c1ccc(C(=O)/C=C/c2ccc(N3CCCC3)cc2)cc1` [Compound 2, (E)-1-(4-(methylsulfonyl)phenyl)-3-(4-(pyrrolidin-1-yl)phenyl) prop-2-en-1-one], in the experiment with MDA-MB-231 [4], the “cell cycle shifts (in words)” value is reported as “slight S phase arrest”. Moreover, in the experiment with MDA-MB-231 [2] (setting [6]), the activity at 5 µM is 67.3 ± 53.9%.

Consider `CS(=O)(=O)c1ccc(C(=O)/C=C/c2ccc(N3CCOCC3)cc2)cc1` [Compound 3, (E)-1-(4-(methylsulfonyl)phenyl)-3-(4-morpholinophenyl) prop-2-en-1-one], for which the activity at 5 µM in the experiment with MDA-MB-231 [2] (setting [6]) came out at 65.7 ± 52.4%.

Regarding `CS(=O)(=O)c1ccc(C(=O)/C=C/c2ccc(N3CCCCC3)cc2)cc1` [Compound 4, (E)-1-(4-(methylsulfonyl)phenyl)-3-(4-(piperidin-1-yl)phenyl) prop-2-en-1-one], the activity at 5 µM in the experiment with MDA-MB-231 [2] (setting [6]) worked out at 70.7 ± 55.9%.

By IC50 is commonly meant the point on the concentration scale where inhibition reaches its midpoint. Turning to `CSc1ccc(C(=O)/C=C/c2ccc(N3CCOCC3)cc2)cc1` [Compound 5, (E)-1-(4-(methylthio)phenyl)-3-(4-morpholinophenyl) prop-2-en-1-one], the “cell cycle shifts (in words)” value with MDA-MB-231 [4] is listed as “no major cell cycle shifts”. Moreover, the activity at 5 µM in the experiment on MDA-MB-231 [2] (setting [6]) was 64.3 ± 3.32%. Further, the IC50 with MDA-MB-231 [2] (Homo sapiens, MDA-MB-231) was 6140 ± 620 nM. Moreover, in experiment [5], the “inhibition of blood vessels development vs control” value is listed as 68.49±4.42%.

Turning to `CSc1ccc(C(=O)/C=C/c2ccc(N3CCCCC3)cc2)cc1` [Compound 6, (E)-1-(4-(methylthio)phenyl)-3-(4-(piperidin-1-yl)phenyl) prop-2-en-1-one], the activity at 5 µM in the experiment with MDA-MB-231 [2] (setting [6]) stood at 69.5 ± 3.92%.

Consider `CSc1ccc(C(=O)/C=C/c2ccc(N3CCCC3)cc2)cc1` [Compound 7, (E)-1-(4-(methylthio)phenyl)-3-(4-(pyrrolidin-1-yl)phenyl) prop-2-en-1-one], for which the activity at 5 µM with MDA-MB-231 [2] (setting [6]) amounted to 71.8 ± 0.06%.

Take `COc1cccc(C(=O)/C=C/c2ccc(N3CCCC3)cc2)c1` [Compound 8, (E)-1-(3-methoxyphenyl)-3-(4-(pyrrolidin-1-yl)phenyl) prop-2-en-1-one]: the activity at 5 µM with MDA-MB-231 [2] (setting [6]) is 48.7 ± 2.85%. In the experiment with MDA-MB-231 [2] (Homo sapiens, MDA-MB-231), the IC50 is 3000 ± 460 nM.

As for `COc1cccc(C(=O)/C=C/c2ccc(N3CCCCC3)cc2)c1` [Compound 9, (E)-1-(3-methoxyphenyl)-3-(4-(piperidin-1-yl)phenyl)prop-2-en-1-one], the “cell cycle shifts (in words)” value in the experiment with MDA-MB-231 [4] is given as “no major cell cycle shifts”. For the same compound, the activity at 5 µM in the experiment on MDA-MB-231 [2] (setting [6]) stood at 75 ± 0.86%.

As for `O=C(/C=C/c1ccc(N2CCCC2)cc1)c1ccc2c(c1)OCO2` [Compound 10, (E)-1-(benzo[d][1,3]dioxol-5-yl)-3-(4-(pyrrolidin-1-yl)phenyl)prop-2-en-1-one], the activity at 5 µM in the experiment on MDA-MB-231 [2] (setting [6]) stood at 53.5 ± 5.98%. Besides, the IC50 in the experiment on MDA-MB-231 [2] (Homo sapiens, MDA-MB-231) turned out to be 4800 ± 720 nM.

With `O=C(/C=C/c1ccc(N2CCOCC2)cc1)c1ccc(N2CCNCC2)cc1` [Compound 11, (E)-3-(4-morpholinophenyl)-1-(4-(piperazin-1-yl)phenyl) prop-2-en-1-one], the activity at 5 µM with MDA-MB-231 [2] (setting [6]) was determined as 75.1 ± 0.86%.

Turning to `COc1ccccc1C(=O)/C=C/c1ccc(N(CCCl)CCCl)cc1` [Compound 12, (E)-3-(4-(Bis(2-chloroethyl)amino)phenyl)-1-(2-methoxyphenyl) prop-2-en-1-one], the IC50 in the experiment with MDA-MB-231 [2] is 1990 ± 190 nM; in the experiment on MDA-MB-231 [2] (Homo sapiens, MDA-MB-231, 24 h), 2000 ± 188 nM. In addition, in the experiment on MDA-MB-231 [2] (setting [6]), the activity at 5 µM stood at 32.8 ± 0.68%.

Take `CC(=O)O[C@H]1C(=O)[C@@]2(C)[C@H]([C@H](OC(=O)c3ccccc3)[C@]3(O)C[C@H](OC(=O)[C@H](O)[C@@H](NC(=O)c4ccccc4)c4ccccc4)C(C)=C1C3(C)C)[C@]1(OC(C)=O)CO[C@@H]1C[C@@H]2O` [Paclitaxel, reference compound]: the “colony formation (in words)” value with MDA-MB-231 [1], in the experiment on MDA-MB-468 and in the experiment on MCF-7 was “significantly inhibited the ability of cells to form colonies” each time. In addition, the activity at 5 µM in the experiment with MDA-MB-231 [2] (setting [6]) was determined as 39.3 ± 5.16%. Also, the IC50 in the experiment with MDA-MB-231 [2] (Homo sapiens, MDA-MB-231) was determined as 2010 ± 220 nM.
